These compounds were tested on BE(2)-C cell (assay: Cell proliferation assay (MTS) in BE(2)-C cells). Details: Homo sapiens, inhibition of BE(2)-C cell proliferation, 48 h.
Format: cell-based
How it was run: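 BE(2)-C cells (3000/well, DMEM + 10% FBS) were treated for 48 h at 37 °C with compound at 1.5–10000 nM in nine concentrations. Viability was measured by MTS (2 h, stopped with SDS) at 490/650 nm, and IC50 was calculated from the dose-response.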
Work on `CCN1CCC2(CC1)CN(Cc1ccc(Nc3ncc(F)c(-c4cc(F)c5nc6n(c5c4)[C@H](C(F)(F)F)CC6)n3)nc1)C2` [Example 63, (S)-N-(5-((7-ethyl-2,7-diazaspiro[3.5]nonan-2-yl)methyl)pyridin-2-yl)-5-fluoro-4-(5-fluoro-1-(trifluoromethyl)-2,3-dihydro-1H-benzo[d]pyrrolo[1,2-a]imidazol-7-yl)pyrimidin-2-amine] yielded an IC50 of 10 to 100 nM. For `Fc1cnc(Nc2ccc(CN3CCC4(CC3)CNC4)cn2)nc1-c1cc(F)c2nc3n(c2c1)[C@H](C(F)(F)F)CC3` [Example 64, (S)-N-(5-((2,7-diazaspiro[3.5]nonan-7-yl)methyl)pyridin-2-yl)-5-fluoro-4-(5-fluoro-1-(trifluoro-methyl)-2,3-dihydro-1H-benzo[d]pyrrolo[1,2-a]imidazol-7-yl)pyrimidin-2-amine], the IC50 was greater than 100 nM. Compound `CN1CC2(CCN(Cc3ccc(Nc4ncc(F)c(-c5cc(F)c6nc7n(c6c5)[C@H](C(F)(F)F)CC7)n4)nc3)CC2)C1` [Example 65, (S)-5-fluoro-4-(5-fluoro-1-(trifluoromethyl)-2,3-dihydro-1H-benzo[d]pyrrolo[1,2-a]imidazol-7-yl)-N-(5-((2-methyl-2,7-diazaspiro[3.5]nonan-7-yl)methyl)pyridin-2-yl)pyrimidin-2-amine] has an IC50 of 10 to 100 nM. Compound `CCN1CC2(CCN(Cc3ccc(Nc4ncc(F)c(-c5cc(F)c6nc7n(c6c5)[C@H](C(F)(F)F)CC7)n4)nc3)CC2)C1` [Example 66] has an IC50 of 10 to 100 nM. `Fc1cnc(Nc2ccc(CN3CC4(CNC4)C3)cn2)nc1-c1cc(F)c2nc3n(c2c1)[C@H](C(F)(F)F)CC3` [Example 67, (S)-N-(5-((2,6-diazaspiro[3.3]heptan-2-yl)methyl)pyridin-2-yl)-5-fluoro-4-(5-fluoro-1-(trifluoromethyl)-2,3-dihydro-1H-benzo[d]pyrrolo[1,2-a]imidazol-7-yl)pyrimidin-2-amine] showed an IC50 greater than 100 nM. Compound `CN1CC2(C1)CN(Cc1ccc(Nc3ncc(F)c(-c4cc(F)c5nc6n(c5c4)[C@H](C(F)(F)F)CC6)n3)nc1)C2` [Example 68, (S)-5-fluoro-4-(5-fluoro-1-(trifluoromethyl)-2,3-dihydro-1H-benzo[d]pyrrolo[1,2-a]imidazol-7-yl)-N-(5-((6-methyl-2,6-diazaspiro[3.3]heptan-2-yl)methyl)pyridin-2-yl)pyrimidin-2-amine] has an IC50 of 10 to 100 nM. `CCN1CC2(C1)CN(Cc1ccc(Nc3ncc(F)c(-c4cc(F)c5nc6n(c5c4)[C@H](C(F)(F)F)CC6)n3)nc1)C2` [Example 69, (S)-N-(5-((6-ethyl-2,6-diazaspiro[3.3]heptan-2-yl)methyl)pyridin-2-yl)-5-fluoro-4-(5-fluoro-1-(trifluoromethyl)-2,3-dihydro-1H-benzo[d]pyrrolo[1,2-a]imidazol-7-yl)pyrimidin-2-amine] showed an IC50 of 10 to 100 nM. Compound `Fc1cnc(Nc2ccc(CN3CCC4(CCNCC4)CC3)cn2)nc1-c1cc(F)c2nc3n(c2c1)[C@H](C(F)(F)F)CC3` [Example 70, (S)-N-(5-((3,9-diazaspiro[5.5]undecan-3-yl)methyl)pyridin-2-yl)-5-fluoro-4-(5-fluoro-1-(trifluoromethyl)-2,3-dihydro-1H-benzo[d]pyrrolo[1,2-a]imidazol-7-yl)pyrimidin-2-amine] has an IC50 greater than 1000 nM. For `CN1CCC2(CC1)CCN(Cc1ccc(Nc3ncc(F)c(-c4cc(F)c5nc6n(c5c4)[C@H](C(F)(F)F)CC6)n3)nc1)CC2` [Example 71, (S)-5-fluoro-4-(5-fluoro-1-(trifluoromethyl)-2,3-dihydro-1H-benzo[d]pyrrolo[1,2-a]imidazol-7-yl)-N-(5-((9-methyl-3,9-diazaspiro[5.5]undecan-3-yl)methyl)pyridin-2-yl)pyrimidin-2-amine], the IC50 was 10 to 100 nM. Compound `CCN1CCC2(CC1)CCN(Cc1ccc(Nc3ncc(F)c(-c4cc(F)c5nc6n(c5c4)[C@H](C(F)(F)F)CC6)n3)nc1)CC2` [Example 72, (S)-N-(5-((9-ethyl-3,9-diazaspiro[5.5]undecan-3-yl)methyl)pyridin-2-yl)-5-fluoro-4-(5-fluoro-1-(trifluoromethyl)-2,3-dihydro-1H-benzo[d]pyrrolo [1,2-a]imidazol-7-yl)pyrimidin-2-amine] has an IC50 of 10 to 100 nM. For `Fc1cnc(Nc2ccc(CN3CC4CNCC4C3)cn2)nc1-c1cc(F)c2nc3n(c2c1)[C@H](C(F)(F)F)CC3` (stereo partly drawn) [Example 73, 5-fluoro-4-((5)-5-fluoro-1-(trifluoromethyl)-2,3-dihydro-1H-benzo[d]pyrrolo[1,2-a]imidazol-7-yl)-N-(5-((hexahydropyrrolo[3,4-c]pyrrol-2(1H)-yl)methyl)pyridin-2-yl)pyrimidin-2-amine], the IC50 was greater than 100 nM. Work on `CN1CC2CN(Cc3ccc(Nc4ncc(F)c(-c5cc(F)c6nc7n(c6c5)[C@H](C(F)(F)F)CC7)n4)nc3)CC2C1` (stereo partly drawn) [Example 74, 5-fluoro-4-((S)-5-fluoro-1-(trifluoromethyl)-2,3-dihydro-1H-benzo[d]pyrrolo[1,2-a]imidazol-7-yl)-N-(5-((5-methylhexahydropyrrolo[3,4-c]pyrrol-2(1H)-yl)methyl)pyridin-2-yl)pyrimidin-2-amine] yielded an IC50 of 10 to 100 nM. `CCN1CC2CN(Cc3ccc(Nc4ncc(F)c(-c5cc(F)c6nc7n(c6c5)[C@H](C(F)(F)F)CC7)n4)nc3)CC2C1` (stereo partly drawn) [Example 75, N-(5-((5-ethylhexahydropyrrolo[3,4-c]pyrrol-2(1H)-yl)methyl)pyridin-2-yl)-5-fluoro-4-((S)-5-fluoro-1-(trifluoromethyl)-2,3-dihydro-1H-benzo[d]pyrrolo[1,2-a]imidazol-7-yl)pyrimidin-2-amine] gave an IC50 of 10 to 100 nM. For `Fc1cnc(Nc2ccc(CN3C4CCC3CNC4)cn2)nc1-c1cc(F)c2nc3n(c2c1)[C@H](C(F)(F)F)CC3` [Example 76, N-(5-((3,8-diazabicyclo[3.2.1]octan-8-yl)methyl)pyridin-2-yl)-5-fluoro-4-((S)-5-fluoro-1-(trifluoro-methyl)-2,3-dihydro-1H-benzo[d]pyrrolo[1,2-a]imidazol-7-yl)pyrimidin-2-amine], the IC50 was 10 to 100 nM. Work on `CN1CC2CCC(C1)N2Cc1ccc(Nc2ncc(F)c(-c3cc(F)c4nc5n(c4c3)[C@H](C(F)(F)F)CC5)n2)nc1` [Example 77, 5-fluoro-4-((S)-5-fluoro-1-(trifluoromethyl)-2,3-dihydro-1H-benzo[d]pyrrolo[1,2-a]imidazol-7-yl)-N-(5-((3-methyl-3,8-diazabicyclo[3.2.1]octan-8-yl)methyl)pyridin-2-yl)pyrimidin-2-amine] yielded an IC50 of 10 to 100 nM. Work on `CCN1CC2CCC(C1)N2Cc1ccc(Nc2ncc(F)c(-c3cc(F)c4nc5n(c4c3)[C@H](C(F)(F)F)CC5)n2)nc1` [Example 78, N-(5-((3-ethyl-3,8-diazabicyclo[3.2.1]octan-8-yl)methyl)pyridin-2-yl)-5-fluoro-4-((S)-5-fluoro-1-(trifluoromethyl)-2,3-dihydro-1H-benzo[d]pyrrolo [1,2-a]imidazol-7-yl)pyrimidin-2-amine] yielded an IC50 of 10 to 100 nM. For `Fc1cnc(Nc2ccc(CN3CC4CCC(C3)N4)cn2)nc1-c1cc(F)c2nc3n(c2c1)[C@H](C(F)(F)F)CC3` [Example 79, N-(5-((3,8-diazabicyclo[3.2.1]octan-3-yl)methyl)pyridin-2-yl)-5-fluoro-4-((S)-5-fluoro-1-(trifluoro-methyl)-2,3-dihydro-1H-benzo[d]pyrrolo[1,2-a]imidazol-7-yl)pyrimidin-2-amine], the IC50 was 10 to 100 nM. `CN1C2CCC1CN(Cc1ccc(Nc3ncc(F)c(-c4cc(F)c5nc6n(c5c4)[C@H](C(F)(F)F)CC6)n3)nc1)C2` [Example 80, 5-fluoro-4-((S)-5-fluoro-1-(trifluoromethyl)-2,3-dihydro-1H-benzo[d]pyrrolo[1,2-a]imidazol-7-yl)-N-(5-((8-methyl-3,8-diazabicyclo[3.2.1]octan-3-yl)methyl)pyridin-2-yl)pyrimidin-2-amine] was tested, and the IC50 was 10 to 100 nM. Work on `CCN1C2CCC1CN(Cc1ccc(Nc3ncc(F)c(-c4cc(F)c5nc6n(c5c4)[C@H](C(F)(F)F)CC6)n3)nc1)C2` [Example 81, N-(5-((8-ethyl-3,8-diazabicyclo[3.2.1]octan-3-yl)methyl)pyridin-2-yl)-5-fluoro-4-((S)-5-fluoro-1-(trifluoromethyl)-2,3-dihydro-1H-benzo[d]pyrrolo [1,2-a]imidazol-7-yl)pyrimidin-2-amine] yielded an IC50 of 10 to 100 nM. `C[C@@H]1CCc2nc3c(F)cc(-c4nc(Nc5ccc(CN6CCNCC6)cn5)ncc4F)cc3n21` [Example 82, (R)-5-fluoro-4-(5-fluoro-1-methyl-2,3-dihydro-1H-benzo[d]pyrrolo[1,2-a]imidazol-7-yl)-N-(5-(piperazin-1-ylmethyl)pyridin-2-yl)pyrimidin-2-amine] gave an IC50 of 10 to 100 nM. Work on `C[C@@H]1CCc2nc3c(F)cc(-c4nc(Nc5ccc(CN6CCN7CCC[C@@H]7C6)cn5)ncc4F)cc3n21` [Example 85, 5-fluoro-4-((R)-5-fluoro-1-methyl-2,3-dihydro-1H-benzo[d]pyrrolo[1,2-a]imidazol-7-yl)-N-(5-(((R)-hexahydropyrrolo[1,2-a]pyrazin-2(1H)-yl)methyl)pyridin-2-yl)pyrimidin-2-amine] yielded an IC50 of 10 to 100 nM. `C[C@@H]1CCc2nc3c(F)cc(-c4nc(Nc5ccc(CN6CCC7(CC6)CNC7)cn5)ncc4F)cc3n21` [Example 86, (R)-N-(5-((2,7-diazaspiro[3.5]nonan-7-yl)methyl)pyridin-2-yl)-5-fluoro-4-(5-fluoro-1-methyl-2,3-dihydro-1H-benzo[d]pyrrolo[1,2-a]imidazol-7-yl)pyrimidin-2-amine] showed an IC50 greater than 100 nM. `C[C@@H]1CCc2nc3c(F)cc(-c4nc(Nc5ccc(CN6CCC7(CC6)CN(C)C7)cn5)ncc4F)cc3n21` [Example 87, (R)-5-fluoro-4-(5-fluoro-1-methyl-2,3-dihydro-1H-benzo[d]pyrrolo[1,2-a]imidazol-7-yl)-N-(5-((2-methyl-2,7-diazaspiro[3.5]nonan-7-yl)methyl)pyridin-2-yl)pyrimidin-2-amine] was tested, and the IC50 was 10 to 100 nM. For `CCN1CC2(CCN(Cc3ccc(Nc4ncc(F)c(-c5cc(F)c6nc7n(c6c5)[C@H](C)CC7)n4)nc3)CC2)C1` [Example 88, (R)-N-(5-((2-ethyl-2,7-diazaspiro[3.5]nonan-7-yl)methyl)pyridin-2-yl)-5-fluoro-4-(5-fluoro-1-methyl-2,3-dihydro-1H-benzo[d]pyrrolo[1,2-a]imidazol-7-yl)pyrimidin-2-amine], the IC50 was 10 to 100 nM.

— patent US10450316B2, “Certain protein kinase inhibitor” (Chongqing Fochon Pharmaceutical Co., Ltd., priority 2015, dated 2019)
